Data reported in US9061029B2, “Method of treating proliferative disorders and other pathological conditions mediated by Bcr-Abl, c-Kit, DDR1, DDR2 or PDGF-R kinase activity” (Novartis AG, priority 2009, dated 2015).
Read-outs that look alike come from different tables or passages of the source.

How the values were obtained:
[1] = administration of nilotinib in a fruit preparation, human subjects
Description: All treatments were administered with 240 mL of water, in the morning, after an overnight fast of at least 10 hours. Subjects continued to fast until 4 hours after administration. […] Consumption of grapefruit, grapefruit juice, or any caffeinated beverages within 48 hours of study initiation was prohibited.
At each time point, 2.5 mL of whole blood was drawn using a Serum Separator Vacutainer® (Becton, Dickinson and Company, Franklin Lakes, N.J., USA) tube. The tube was allowed to stand vertically at room temperature for 30 minutes prior to centrifugation at 5° C. for 10 minutes at 1100 g. Immediately after centrifugation, the upper serum sample was transferred and stored frozen at ≦−15° C. until shipped to the analytical site for sample analyses.
The MTBE layer was transferred, evaporated to dryness, and reconstituted with 400 μl of an acetonitrile and 0.2% formic acid mixture (40:60, v/v). Chromatography was carried out using a Phenomenex Synergi™ Polar-RP column (particle size 4 μm, 50 mm×2 mm i.d.) (Phenomenex, Inc, Torrance, Calif.) held at room temperature. Elution of the analytes was performed using a isocratic elution at a flow rate of 0.5 mL/min with mobile phases of 0.2% formic acid in 10 mM aqueous ammonium formate: 0.2% formic acid in acetonitrile (60:40, v/v).

[2] = 400 mg oral capsule, cited from earlier work
[3] = concurrent intake of grapefruit juice; cited from earlier work
[4] = light breakfast given 30 minutes prior to dosing

## Cc1cn(-c2cc(NC(=O)c3ccc(C)c(Nc4nccc(-c5cccnc5)n4)c3)cc(C(F)(F)F)c2)cn1 [nilotinib, 4-methyl-3-[[4-(3-pyridinyl)-2-pyrimidinyl]amino]-N-[5-(4-methyl-1H-imidazol-1-yl)-3-(trifluoromethyl)-phenyl]benzamide]
[1]
  safety and tolerability: safe and well tolerated
[2]; after a high fat breakfast
  increase in Cmax: 112%
  increase in total exposure (AUC0-t): 82%
[2]; [4]
  increase in Cmax: 55%
  increase in total exposure (AUC0-t): 29%
[3]
  AUC increase: 29%
  Cmax increase: 60%
